{"source": "patent US7273710B2", "about": "“Method for screening MCH receptor antagonist/agonist” (Takeda Pharmaceutical Company Limited, priority 2000, dated 2007)", "key": {"[1]": {"molecular_target": "T1, human SLT (Homo sapiens, UniProt Q969V1)", "T1 construct": "expressed in transfected cells; host or cells: membrane fraction of CHO/hSLT cells (CHO dhfr- transfected with pAKKO-hSLT)", "T1 sequence (Q969V1 whole entry)": "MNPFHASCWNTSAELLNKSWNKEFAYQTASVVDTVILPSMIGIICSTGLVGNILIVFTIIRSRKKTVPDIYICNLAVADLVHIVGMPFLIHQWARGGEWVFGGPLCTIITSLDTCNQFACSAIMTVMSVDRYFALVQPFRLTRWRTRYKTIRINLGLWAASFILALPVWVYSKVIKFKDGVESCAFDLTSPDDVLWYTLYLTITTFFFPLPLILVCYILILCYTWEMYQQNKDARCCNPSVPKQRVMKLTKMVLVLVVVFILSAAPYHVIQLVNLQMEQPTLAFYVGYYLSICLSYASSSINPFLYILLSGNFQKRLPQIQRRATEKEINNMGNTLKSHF", "assay": "Receptor binding assay with [125I]-labeled MCH (4-19) on cell membrane fraction of human SLT-expressing CHO cells", "details": "membrane fractions from CHO/hSLT clones #1, 26, 36, 25° C., 60 minutes, FIG. 3"}, "[2]": {"molecular_target": "T1, human SLT", "assay": "Release of [3H] arachidonic acid metabolite in human SLT-expressing CHO cells", "type": "cell-based", "details": "CHO/hSLT cells, FIG. 6"}, "[3]": {"molecular_target": "T1, human SLT", "assay": "Inhibition of forskolin-stimulated cAMP production in human SLT-expressing CHO cells", "type": "cell-based", "details": "CHO/hSLT cells, 2 μM forskolin, FIG. 2"}, "[4]": {"molecular_target": "T1, human SLT", "assay": "FLIPR assay of intracellular Ca ion level in human SLT-expressing CHO cells", "type": "cell-based", "details": "CHO/hSLT cells, Fluo 3-AM, FIG. 5"}}, "note": "Positions of bridges follow the written chain, without caps; N, C: chain ends. No end group written: not given here."}
{"molecule": "[^125I]-[N-3-(4-hydroxy-3-iodophenyl)propionyl)-Met^4]-MCH (4-19) ({3‑(4-hydroxy-3-(125I)iodophenyl)propionyl}-MLRCMLGRVYRPCWQV; disulfide 4-13) [[^125I]-labeled MCH (4-19)]", "values": [{"measurement": "specific binding to cell membrane fraction", "setting": "[1]", "value": "dependent on the concentration of membrane fraction was observed"}]}
{"molecule": "CSCC[C@@H]1NC(=O)[C@@H](NC(=O)[C@H](CCCNC(=N)N)NC(=O)[C@H](CC(C)C)NC(=O)[C@H](CCSC)NC(=O)[C@H](CC(=O)O)NC(=O)[C@H](Cc2ccccc2)NC(=O)[C@@H](N)CC(=O)O)CSSC[C@@H](C(=O)N[C@@H](Cc2c[nH]c3ccccc23)C(=O)N[C@@H](CCC(N)=O)C(=O)N[C@H](C(=O)O)C(C)C)NC(=O)[C@@H]2CCCN2C(=O)[C@H](CCCNC(=N)N)NC(=O)[C@H](Cc2ccc(O)cc2)NC(=O)[C@H](C(C)C)NC(=O)[C@H](CCCNC(=N)N)NC(=O)CNC(=O)[C@H](CC(C)C)NC1=O", "note": "[MCH, Asp-Phe-Asp-Met-Leu-Arg-Cys-Met-Leu-Gly-Arg-Val-Tyr-Arg-Pro-Cys-Trp-Gln-V al]", "values": [{"measurement": "activity to induce the release of the arachidonic acid metabolite", "setting": "[2]", "value": "in a does-dependent manner"}, {"measurement": "concentration at which the intracellular cAMP was clearly decreased", "setting": "[3]; 37° C., 30 minutes", "value": 30, "unit": "pM"}, {"measurement": "inhibition of cAMP production, concentration dependence", "setting": "[3]", "value": "decreased in a dose-dependent manner"}, {"measurement": "increase of the intracellular Ca ion level", "setting": "[4]", "value": "increases the intracellular Ca ion level in human SLT-expressing CHO cells in a manner dependent on the concentration"}]}
